According to US20210388005A1, “FLUORESCENT COMPOUND AND PREPARATION METHOD AND USE FOR THE SAME” (NEUBORON MEDTECH LTD., priority 2019, published 2021):

What was measured:
[1] = near-infrared absorption spectrum in ethanol solution; assay type: physicochemical
Experimental: FIG. 3 is a near-infrared absorption spectrum of compound I-1 and compound I-2 in Example 4 in ethanol solution.
(§1) To a single-necked flask is added 300 ml of absolute ethyl alcohol, 6.47 g of 3-bromomethyl phenylboronate indole quaternary ammonium salt, 2-chloro-3-hydroxymethylene cyclohexene carboxaldehyde, and 0.15 g of sodium acetate. The mixture is reacted at 70° C. for 1 h, and spin dried to remove the solvent. The resulting residue is separated by column chromatography, to obtain fluorescent compounds I-1 and I-2. The fluorescent compound I-1 has a maximum fluorescence emission peak at 808 nm when excited at a wavelength of […], and has a near infrared absorption peak in ethanol solution at 785 nm. The fluorescent compound I-2 has a maximum fluorescence emission peak at 811 nm when excited at a wavelength of […], and has a near infrared absorption peak in ethanol solution at 788 nm.

[2] = fluorescence spectrum at room temperature; assay type: physicochemical; details: excited at a wavelength
Experimental: as §1

near infrared absorption peak [1] [nm] | maximum fluorescence emission peak [2] [nm] | SMILES
788 | 811 | CC1(C)C(/C=C/C2=C(Cl)C(=C/C=C3/N(Cc4ccccc4)c4ccccc4C3(C)C)/CCC2)=[N+](Cc2cccc(B(O)O)c2)c2ccccc21 [Compound I-2]
785 | 808 | CC1(C)C(/C=C/C2=C(Cl)C(=C/C=C3/N(Cc4cccc(B(O)O)c4)c4ccccc4C3(C)C)/CCC2)=[N+](Cc2cccc(B(O)O)c2)c2ccccc21 [Compound I-1]
